Reference: patent US12559529B2, “NPY2 receptor agonists” (Boehringer Ingelheim International GmbH, priority 2019, dated 2026)
*1 amine or outer side, *2 acyl side, *3 side chain or, on linkers, in order; H or OH if unused. Where a SMILES comes first, the peptide text is derived from it. Side-chain parts run from the residue outwards. The star is where a group is joined. C18 diacid = O=C(O)CCCCCCCCCCCCCCCCC(=O)*; γGlu = O=C(O)[C@H](CCC(=O)[*:2])N[*:1]; Isovaleryl = CC(C)CC(=O)*; AEEA = NCCOCCOCC(=O)O

These compounds were tested against T1, Human Neuropeptide Y2 Receptor (Homo sapiens, UniProt P49146) (assay: Radioligand binding competition assay (RLB)). Conditions: Table 3; human 125I-PYY (1-36) 0.02 nM, Y2 receptor membranes; read-out: Ki.
T1 construct: purchased CHEMICON HTS066M
T1 sequence (P49146 1-381): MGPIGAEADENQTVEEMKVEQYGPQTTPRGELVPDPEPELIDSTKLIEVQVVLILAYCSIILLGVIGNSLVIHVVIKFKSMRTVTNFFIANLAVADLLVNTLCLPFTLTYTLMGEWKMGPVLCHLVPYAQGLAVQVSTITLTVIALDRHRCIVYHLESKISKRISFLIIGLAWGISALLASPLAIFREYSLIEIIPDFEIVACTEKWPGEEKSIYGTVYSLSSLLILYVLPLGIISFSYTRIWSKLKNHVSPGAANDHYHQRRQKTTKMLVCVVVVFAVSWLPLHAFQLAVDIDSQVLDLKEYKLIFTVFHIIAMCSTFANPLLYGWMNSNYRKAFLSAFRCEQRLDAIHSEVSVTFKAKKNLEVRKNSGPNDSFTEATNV
Outline: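 Membranes from cells expressing human Y2 receptor (0.5 μg protein/well) were incubated with radioligand and serially diluted peptides in 50 mM HEPES, 5 mM MgCl2, 1 mM CaCl2, 0.2% ovalbumin, pH 7.4, for 2 h at room temperature with shaking. Bound radioactivity was collected by filtration and counted; IC50 from sigmoidal nonlinear regression.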

SMILES | Ki [nM]
CC(C)CC(=O)N[C@@H](C)C(=O)N1CCC[C@H]1C(=O)N[C@@H](CCC(=O)O)C(=O)N[C@@H](CCCCNC(=O)COCCOCCNC(=O)COCCOCCNC(=O)CC[C@H](NC(=O)CCCCCCCCCCCCCCCCC(=O)O)C(=O)O)C(=O)N1CCC[C@H]1C(=O)N[C@@H](CCC(=O)O)C(=O)N[C@@H](CCC(=O)O)C(=O)N[C@@H](CC(=O)O)C(=O)N[C@@H](C)C(=O)N[C@@H](CO)C(=O)N1CCC[C@H]1C(=O)N[C@@H](CCC(=O)O)C(=O)N[C@@H](CCC(=O)O)C(=O)N[C@@H](CC(C)C)C(=O)N[C@@H](CCC(N)=O)C(=O)N[C@@H](CCCNC(=N)N)C(=O)N[C@@H](Cc1ccc(O)cc1)C(=O)N[C@@H](Cc1ccc(O)cc1)C(=O)N[C@H](C(=O)N[C@@H](CO)C(=O)N[C@@H](C)C(=O)N[C@@H](CCCNC(=N)N)C(=O)N[C@@H](Cc1c[nH]cn1)C(=O)N[C@@H](Cc1ccc(O)cc1)C(=O)N[C@@H](Cc1ccc(O)cc1)C(=O)N[C@@H](CC(N)=O)C(=O)N[C@@H](Cc1c[nH]c2ccccc12)C(=O)N[C@@H](CC(C)C)C(=O)N[C@H](C(=O)N[C@@H](CCCNC(=N)N)C(=O)N[C@@H](CCC(N)=O)C(=O)N[C@@H](CCCNC(=N)N)C(=O)N[C@@H](Cc1ccc(O)cc1)C(N)=O)[C@@H](C)O)C(C)C [Compound 229, N{alpha-4}-(3-methylbutanoyl)-N{epsilon-7}-[2-(2-{2-[2-(2-{2-[(4S)-4-carboxy-4-(17-carboxyheptadecanamido)butanamido]ethoxy}ethoxy)acetamido]ethoxy}ethoxy)acetamido]-[4A,7K,9E,18Q,22V,24A,28Y,30W,31L]hPYY (4-36)] | 2.84
CC(C)CC(=O)N[C@@H](C)C(=O)N1CCC[C@H]1C(=O)N[C@@H](C)C(=O)N[C@@H](CCCCNC(=O)COCCOCCNC(=O)COCCOCCNC(=O)CC[C@H](NC(=O)CCCCCCCCCCCCCCCCC(=O)O)C(=O)O)C(=O)N1CCC[C@H]1C(=O)N1CCC[C@H]1C(=O)N[C@@H](CCC(=O)O)C(=O)N[C@@H](CC(=O)O)C(=O)N[C@@H](C)C(=O)N[C@@H](CO)C(=O)N1CCC[C@H]1C(=O)N[C@@H](CCC(=O)O)C(=O)N[C@@H](CCC(=O)O)C(=O)N[C@@H](CC(C)C)C(=O)N[C@@H](CCC(N)=O)C(=O)N[C@@H](CCCNC(=N)N)C(=O)N[C@@H](Cc1ccc(O)cc1)C(=O)N[C@@H](Cc1ccc(O)cc1)C(=O)N[C@H](C(=O)N[C@@H](CCC(=O)O)C(=O)N[C@@H](CC(C)C)C(=O)N[C@@H](CCCNC(=N)N)C(=O)N[C@@H](Cc1c[nH]cn1)C(=O)N[C@@H](Cc1ccc(O)cc1)C(=O)N[C@@H](Cc1ccc(O)cc1)C(=O)N[C@@H](CC(N)=O)C(=O)N[C@@H](Cc1c[nH]c2ccccc12)C(=O)N[C@@H](CC(C)C)C(=O)N[C@H](C(=O)N[C@@H](CCCNC(=N)N)C(=O)N[C@@H](CCC(N)=O)C(=O)N[C@@H](CCCNC(=N)N)C(=O)N[C@@H](Cc1ccc(O)cc1)C(N)=O)[C@@H](C)O)C(C)C [Compound 232, N{alpha-4}-(3-methylbutanoyl)-N{epsilon-7}-[2-(2-{2-[2-(2-{2-[(4S)-4-carboxy-4-(17-carboxyheptadecanamido)butanamido]ethoxy}ethoxy)acetamido]ethoxy}ethoxy)acetamido]-[4A,6A,7K,9P,18Q,22V,23E,28Y,30W,31L]hPYY (4-36)] | 0.81
CC(C)CC(=O)N[C@@H](C)C(=O)N1CCC[C@H]1C(=O)N[C@@H](CCC(=O)O)C(=O)N[C@@H](CCCCNC(=O)COCCOCCNC(=O)COCCOCCNC(=O)CC[C@H](NC(=O)CCCCCCCCCCCCCCCCC(=O)O)C(=O)O)C(=O)N[C@H](C(=O)N[C@@H](CCC(=O)O)C(=O)N[C@@H](CCC(=O)O)C(=O)N[C@@H](CCC(=O)O)C(=O)N[C@@H](C)C(=O)N[C@@H](CO)C(=O)N1CCC[C@H]1C(=O)N[C@@H](CCC(=O)O)C(=O)N[C@@H](CCC(=O)O)C(=O)N[C@@H](CC(C)C)C(=O)N[C@@H](CCC(N)=O)C(=O)N[C@@H](CCCNC(=N)N)C(=O)N[C@@H](Cc1ccc(O)cc1)C(=O)N[C@@H](Cc1ccc(O)cc1)C(=O)N[C@H](C(=O)N[C@@H](CO)C(=O)N[C@@H](CC(C)C)C(=O)N[C@@H](CCCNC(=N)N)C(=O)N[C@@H](Cc1c[nH]cn1)C(=O)N[C@@H](Cc1ccc(O)cc1)C(=O)N[C@@H](Cc1ccc(O)cc1)C(=O)N[C@@H](CC(N)=O)C(=O)N[C@@H](Cc1c[nH]c2ccccc12)C(=O)N[C@@H](CC(C)C)C(=O)N[C@H](C(=O)N[C@@H](CCCNC(=N)N)C(=O)N[C@@H](CCC(N)=O)C(=O)N[C@@H](CCCNC(=N)N)C(=O)N[C@@H](Cc1ccc(O)cc1)C(N)=O)[C@@H](C)O)C(C)C)[C@@H](C)O [Compound 238, N{alpha-4}-(3-methylbutanoyl)-N{epsilon-7}-[2-(2-{2-[2-(2-{2-[(4S)-4-carboxy-4-(17-carboxyheptadecanamido)butanamido]ethoxy}ethoxy)acetamido]ethoxy}ethoxy)acetamido]-[4A,7K,8T,9E,11E,18Q,22V,28Y,30W,31L]hPYY (4-36)] (Isovaleryl-APEK([AEEA-AEEA-γGlu-C18 diacid])TEEEASPEELQRYYVSLRHYYNWLTRQRY-NH2) | 25.1

More lines, now with the values ahead:

Ki [nM] | SMILES
12.3 | CC(C)CC(=O)N[C@@H](C)C(=O)N1CCC[C@H]1C(=O)N[C@@H](CCC(=O)O)C(=O)N[C@@H](CCCCNC(=O)COCCOCCNC(=O)COCCOCCNC(=O)CC[C@H](NC(=O)CCCCCCCCCCCCCCCCC(=O)O)C(=O)O)C(=O)N[C@@H](C)C(=O)N[C@@H](CCC(=O)O)C(=O)N[C@@H](CCC(=O)O)C(=O)N[C@@H](CC(=O)O)C(=O)N[C@@H](C)C(=O)N[C@@H](CO)C(=O)N1CCC[C@H]1C(=O)N[C@@H](CCC(=O)O)C(=O)N[C@@H](CCC(=O)O)C(=O)N[C@@H](CC(C)C)C(=O)N[C@@H](CCC(=O)O)C(=O)N[C@@H](CCC(N)=O)C(=O)N[C@@H](Cc1ccc(O)cc1)C(=O)N[C@@H](Cc1ccc(O)cc1)C(=O)N[C@H](C(=O)N[C@@H](CO)C(=O)N[C@@H](CC(C)C)C(=O)N[C@@H](CCCNC(=N)N)C(=O)N[C@@H](Cc1c[nH]cn1)C(=O)N[C@@H](Cc1ccc(O)cc1)C(=O)N[C@@H](Cc1ccc(O)cc1)C(=O)N[C@@H](CC(N)=O)C(=O)N[C@@H](Cc1c[nH]c2ccccc12)C(=O)N[C@@H](CC(C)C)C(=O)N[C@H](C(=O)N[C@@H](CCCNC(=N)N)C(=O)N[C@@H](CCC(N)=O)C(=O)N[C@@H](CCCNC(=N)N)C(=O)N[C@@H](Cc1ccc(O)cc1)C(N)=O)[C@@H](C)O)C(C)C [Compound 227, N{alpha-4}-(3-methylbutanoyl)-N{epsilon-7}-[2-(2-{2-[2-(2-{2-[(4S)-4-carboxy-4-(17-carboxyheptadecanamido)butanamido]ethoxy}ethoxy)acetamido]ethoxy}ethoxy)acetamido]-[4A,7K,8A,9E,18E,19Q,22V,28Y,30W,31L]hPYY (4-36)] (Isovaleryl-APEK([AEEA-AEEA-γGlu-C18 diacid])AEEDASPEELEQYYVSLRHYYNWLTRQRY-NH2)
0.81 | CC(C)CC(=O)N[C@@H](C)C(=O)N1CCC[C@H]1C(=O)N[C@@H](CCC(=O)O)C(=O)N[C@@H](CCCCNC(=O)COCCOCCNC(=O)COCCOCCNC(=O)CC[C@H](NC(=O)CCCCCCCCCCCCCCCCC(=O)O)C(=O)O)C(=O)N1CCC[C@H]1C(=O)N[C@@H](CCC(=O)O)C(=O)N[C@@H](C)C(=O)N[C@@H](CC(=O)O)C(=O)N[C@@H](C)C(=O)N[C@@H](CO)C(=O)N[C@@H](C)C(=O)N[C@@H](CCC(=O)O)C(=O)N[C@@H](CCC(=O)O)C(=O)N[C@@H](CC(C)C)C(=O)N[C@@H](CCC(N)=O)C(=O)N[C@@H](CCCNC(=N)N)C(=O)N[C@@H](Cc1ccc(O)cc1)C(=O)N[C@@H](Cc1ccc(O)cc1)C(=O)N[C@H](C(=O)N[C@@H](CO)C(=O)N[C@@H](CC(C)C)C(=O)N[C@@H](CCCNC(=N)N)C(=O)N[C@@H](Cc1c[nH]cn1)C(=O)N[C@@H](Cc1ccc(O)cc1)C(=O)N[C@@H](Cc1ccc(O)cc1)C(=O)N[C@@H](CC(N)=O)C(=O)N[C@@H](Cc1c[nH]c2ccccc12)C(=O)N[C@@H](CC(C)C)C(=O)N[C@H](C(=O)N[C@@H](CCCNC(=N)N)C(=O)N[C@@H](CCC(N)=O)C(=O)N[C@@H](CCCNC(=N)N)C(=O)N[C@@H](Cc1ccc(O)cc1)C(N)=O)[C@@H](C)O)C(C)C [Compound 242, N{alpha-4}-(3-methylbutanoyl)-N{epsilon-7}-[2-(2-{2-[2-(2-{2-[(4S)-4-carboxy-4-(17-carboxyheptadecanamido)butanamido]ethoxy}ethoxy)acetamido]ethoxy}ethoxy)acetamido]-[4A,7K,9E,10A,14A,18Q,22V,28Y,30W,31L]hPYY (4-36)]
